Laboratory results reported in patent publication US12669496B2, “Method for evaluating and/or screening a control agent for tissue morphology and/or tissue function” (ROHTO PHARMACEUTICAL CO., LTD., priority 2020, dated 2026).

Legend:
[1] = system: MRTFA; experiment: Real-time PCR of MRTFA gene expression in skin equivalent models; format: cell-based, human; conditions: 10 μM, 6 to 48 hours; tensional homeostatic skin equivalent model (confirmed only in this model)
[2] = system: COL1A1; experiment: Real-time PCR of COL1A1 gene expression in skin equivalent models; format: cell-based, human; conditions: 6 to 48 hours
[3] = system: type I collagen; experiment: Immunohistochemical staining of type I collagen in skin equivalent; format: cell-based, human
[4] = system: HAS3; experiment: Real-time PCR of HAS3 gene expression in skin equivalent models; conditions: 10 μM
[5] = system: ITGA2; experiment: Immunohistochemical staining of ITGA2 in skin equivalent models; format: cell-based, human; conditions: 10 nM, 6 to 48 hours; tensional homeostatic model; to levels approximately equivalent to tension-released model
[6] = system: MRTFA; experiment: Immunohistochemical staining of MRTFA in skin equivalent models; format: cell-based, human; conditions: 10 nM, 6 to 48 hours; tensional homeostatic model; to levels approximately equivalent to tension-released model
[7] = system: αSMA; experiment: Immunohistochemical staining of αSMA in skin equivalent models; format: cell-based, human; conditions: 10 nM, 6 to 48 hours; tensional homeostatic model; to levels approximately equivalent to tension-released model
[8] = system: MRTFA; experiment: Image analysis of nuclear import rates of MRTFA; format: cell-based, human; conditions: 10 nM, 6 to 48 hours; image analysis of immunohistochemical staining
[9] = system: COL1A2; experiment: Real-time PCR of COL1A2 gene expression in skin equivalent models; format: cell-based, human; conditions: 10 nM, 6 to 48 hours; tensional homeostatic model; to the equivalent level in tension-released skin equivalent
[10] = system: FBN1; experiment: Real-time PCR of FBN1 gene expression in skin equivalent models; format: cell-based, human; conditions: 10 nM, 6 to 48 hours; tensional homeostatic model; to the equivalent level in tension-released skin equivalent
[11] = system: ELN; experiment: Real-time PCR of ELN gene expression in skin equivalent models; format: cell-based, human; conditions: 10 nM, 6 to 48 hours; tensional homeostatic model; to the equivalent level in tension-released skin equivalent
[12] = system: MMP1; experiment: Real-time PCR of MMP1 gene expression in skin equivalent models; format: cell-based, human; conditions: 10 nM, 6 to 48 hours; tensional homeostatic model; to the equivalent level in tension-released skin equivalent
[13] = system: Tensional homeostatic skin equivalent; experiment: Fluorescent staining of actin cytoskeleton and cell membrane (tissue orientation); format: cell-based, human; conditions: 10 nM, to level approximately equivalent to tension-released model

Structure (SMILES) | MRTFA gene expression [1] | COL1A1 gene expression ([2]; 10 μM, Tensional homeostatic skin equivalent vs control group (confirmed only in this model)) | expression of type I collagen (collagen fiber formation) ([3]; 10 μM, Tensional homeostatic skin model, vs control group) | HAS3 gene expression ([4]; 6 to 48 hours, each skin equivalent model, compared with all the control groups) | ratio of the HAS3 expression promotion ([4]; Tensional homeostatic skin equivalent compared with the other models) | gene expression of COL1A1 ([2]; 10 nM, tensional homeostatic model, to the equivalent level in tension-released skin equivalent) | expression level of type I collagen (collagen fiber formation) ([3]; 10 nM, Tensional homeostatic skin equivalent, to level approximately equivalent to tension-released model) | expression level of ITGA2 [5] | expression level of MRTFA [6] | expression level of αSMA [7] | nuclear import rates of MRTFA [8] | gene expression of COL1A2 [9] | gene expression of FBN1 [10] | gene expression of ELN [11] | gene expression of MMP1 [12] | orientations of the cytoskeletons, cell membranes, and nuclei in the tension direction [13]
CC1=C(/C=C/C(C)=C/C=C/C(C)=C/C(=O)O)C(C)(C)CCC1 [ATRA, all-trans retinoic acid] | significant increase | significant promotion of gene expression | increased | significant promotion of gene expression | highest value | – | – | – | – | – | – | – | – | – | – | –
C[C@@H](N)[C@H]1CC[C@H](C(=O)Nc2ccncc2)CC1 [Y27632] | – | – | – | – | – | significantly inhibited | reduced | reduces the expression levels | reduces the expression levels | reduces the expression levels | significantly reduced | significantly inhibited | significantly inhibited | significantly inhibited | significantly increased | reduced the orientations
